Experimental data published in US20200024278A1, “COMPOSITION COMPRISING ANTIBIOTIC COMPOUND AND AN HETEROCYCLIC COMPOUND AND THEIR USE IN PREVENTING OR TREATING BACTERIAL INFECTIONS” (MUTABILIS, priority 2016, published 2020).

Tests used:
Assay in all cases: MIC, broth microdilution (CLSI), substance alone or ATB combined with compound at 4 or 8 μg/mL
Assay type in all cases: cell-based, A. baumannii
[1] = system: ABA UFR155
Description: (§1) Compounds of the present invention were assessed against genotyped bacterial strains alone or in combination with an antibacterial. In the assays, MICs of said compounds or combination of antibiotics with fixed concentrations of said compounds (4 or 8 μg/mL) were determined by the broth microdilution method according to the Clinical Laboratory Standards Institute (CLSI-M7-A7). Briefly, compounds alone according to the invention were prepared in DMSO and spotted (2 μL each) on sterile polystyrene plates (Corning, 3788). Combinations of compounds and antibiotics dilutions were prepared in DMSO and spotted (1 μL each) on sterile polystyrene plates (Corning, 3788). Log phase bacterial suspensions were adjusted to a final density of 5·10^5 CFU/mL in cation-adjusted Mueller-Hinton broth (ca-MHB; Becton-Dickinson and Company) and added to each well (98 μL). Assays including Fosfomycin were supplemented with 25 μg/ml of Glucose-6-phosphate. Microplates were incubated for 16-20 h at 35° C. in ambient air. The MIC of the compounds was defined as the lowest concentration of said compounds that prevented bacterial growth as read by visual inspection. The MIC of ATB at each compound concentration was defined as the lowest concentration of ATB that prevented bacterial growth as read by visual inspection.

[2] = system: ABA UFR156
Description: as §1

[3] = system: ABA UFR157
Description: as §1

[4] = system: ABA UFR158
Description: as §1

[5] = system: ABA UFR159
Description: as §1

[6] = system: ABA UFR160
Description: as §1

[7] = system: ABA UFR161
Description: as §1

## CC1(C)[C@H](C(=O)O)N2C(=O)C[C@H]2S1(=O)=O [SUL]
[1]; with Example 9 @4 μg/ml
  MIC ATB combined with Example 9 @4 μg/ml: 8 µg/mL
[1]; with Example 10 @8 μg/ml
  MIC ATB combined with Example 10 @8 μg/ml: 2 µg/mL
[1]; with Example 11 @8 μg/ml
  MIC ATB combined with Example 11 @8 μg/ml: 4 µg/mL
[1]; with Example 12 @8 μg/ml
  MIC ATB combined with Example 12 @8 μg/ml: 2 µg/mL
[1]; with Example 15 @4 μg/ml
  MIC ATB combined with Example 15 @4 μg/ml: 8 µg/mL
[2]; antibiotic alone
  MIC ATB alone: 64 µg/mL
[2]; with Example 1 @8 μg/ml
  MIC ATB combined with Example 1 @8 μg/ml: 16 µg/mL
[2]; with Example 3 @8 μg/ml
  MIC ATB combined with Example 3 @8 μg/ml: 2 µg/mL
[2]; with Example 6 @8 μg/ml
  MIC ATB combined with Example 6 @8 μg/ml: 4 µg/mL
[2]; with Example 9 @4 μg/ml
  MIC ATB combined with Example 9 @4 μg/ml: 16 µg/mL
[2]; with Example 10 @8 μg/ml
  MIC ATB combined with Example 10 @8 μg/ml: 1 µg/mL
[2]; with Example 11 @8 μg/ml
  MIC ATB combined with Example 11 @8 μg/ml: 8 µg/mL
[2]; with Example 12 @8 μg/ml
  MIC ATB combined with Example 12 @8 μg/ml: 4 µg/mL
[2]; with Example 15 @4 μg/ml
  MIC ATB combined with Example 15 @4 μg/ml: 8 µg/mL
[3]; antibiotic alone
  MIC ATB alone: 64 µg/mL
[3]; with Example 1 @8 μg/ml
  MIC ATB combined with Example 1 @8 μg/ml: 2 µg/mL
[3]; with Example 3 @8 μg/ml
  MIC ATB combined with Example 3 @8 μg/ml: 0.5 µg/mL
[3]; with Example 6 @8 μg/ml
  MIC ATB combined with Example 6 @8 μg/ml: <0.25 µg/mL
[3]; with Example 9 @4 μg/ml
  MIC ATB combined with Example 9 @4 μg/ml: 1 µg/mL
[3]; with Example 10 @8 μg/ml
  MIC ATB combined with Example 10 @8 μg/ml: 1 µg/mL
[3]; with Example 11 @8 μg/ml
  MIC ATB combined with Example 11 @8 μg/ml: 0.5 µg/mL
[3]; with Example 12 @8 μg/ml
  MIC ATB combined with Example 12 @8 μg/ml: 0.5 µg/mL
[3]; with Example 15 @4 μg/ml
  MIC ATB combined with Example 15 @4 μg/ml: 1 µg/mL
[4]; antibiotic alone
  MIC ATB alone: 64 µg/mL
[4]; with Example 1 @8 μg/ml
  MIC ATB combined with Example 1 @8 μg/ml: 16 µg/mL
[4]; with Example 3 @8 μg/ml
  MIC ATB combined with Example 3 @8 μg/ml: 16 µg/mL
[4]; with Example 6 @8 μg/ml
  MIC ATB combined with Example 6 @8 μg/ml: <0.25 µg/mL
[4]; with Example 9 @4 μg/ml
  MIC ATB combined with Example 9 @4 μg/ml: 16 µg/mL
[4]; with Example 10 @8 μg/ml
  MIC ATB combined with Example 10 @8 μg/ml: 16 µg/mL
[4]; with Example 11 @8 μg/ml
  MIC ATB combined with Example 11 @8 μg/ml: 16 µg/mL
[4]; with Example 12 @8 μg/ml
  MIC ATB combined with Example 12 @8 μg/ml: 16 µg/mL
[4]; with Example 15 @4 μg/ml
  MIC ATB combined with Example 15 @4 μg/ml: 32 µg/mL
[5]; antibiotic alone
  MIC ATB alone: 256 µg/mL
[5]; with Example 1 @8 μg/ml
  MIC ATB combined with Example 1 @8 μg/ml: 128 µg/mL
[5]; with Example 3 @8 μg/ml
  MIC ATB combined with Example 3 @8 μg/ml: 128 µg/mL
[5]; with Example 6 @8 μg/ml
  MIC ATB combined with Example 6 @8 μg/ml: 128 µg/mL
[5]; with Example 9 @4 μg/ml
  MIC ATB combined with Example 9 @4 μg/ml: 128 µg/mL
[5]; with Example 10 @8 μg/ml
  MIC ATB combined with Example 10 @8 μg/ml: 128 µg/mL
[5]; with Example 11 @8 μg/ml
  MIC ATB combined with Example 11 @8 μg/ml: 128 µg/mL
[5]; with Example 12 @8 μg/ml
  MIC ATB combined with Example 12 @8 μg/ml: 128 µg/mL
[5]; with Example 15 @4 μg/ml
  MIC ATB combined with Example 15 @4 μg/ml: 128 µg/mL
[6]; antibiotic alone
  MIC ATB alone: >128 µg/mL
[6]; with Example 1 @8 μg/ml
  MIC ATB combined with Example 1 @8 μg/ml: 64 µg/mL
[6]; with Example 3 @8 μg/ml
  MIC ATB combined with Example 3 @8 μg/ml: 64 µg/mL
[6]; with Example 6 @8 μg/ml
  MIC ATB combined with Example 6 @8 μg/ml: <0.25 µg/mL
[6]; with Example 9 @4 μg/ml
  MIC ATB combined with Example 9 @4 μg/ml: 64 µg/mL
[6]; with Example 10 @8 μg/ml
  MIC ATB combined with Example 10 @8 μg/ml: 64 µg/mL
[6]; with Example 11 @8 μg/ml
  MIC ATB combined with Example 11 @8 μg/ml: 64 µg/mL
[6]; with Example 12 @8 μg/ml
  MIC ATB combined with Example 12 @8 μg/ml: 64 µg/mL
[6]; with Example 15 @4 μg/ml
  MIC ATB combined with Example 15 @4 μg/ml: 64 µg/mL
[7]; antibiotic alone
  MIC ATB alone: 128 µg/mL
[7]; with Example 1 @8 μg/ml
  MIC ATB combined with Example 1 @8 μg/ml: 32 µg/mL
[7]; with Example 3 @8 μg/ml
  MIC ATB combined with Example 3 @8 μg/ml: 16 µg/mL
[7]; with Example 6 @8 μg/ml
  MIC ATB combined with Example 6 @8 μg/ml: 16 µg/mL
[7]; with Example 9 @4 μg/ml
  MIC ATB combined with Example 9 @4 μg/ml: 8 µg/mL
[7]; with Example 10 @8 μg/ml
  MIC ATB combined with Example 10 @8 μg/ml: 16 µg/mL
[7]; with Example 11 @8 μg/ml
  MIC ATB combined with Example 11 @8 μg/ml: 8 µg/mL
[7]; with Example 12 @8 μg/ml
  MIC ATB combined with Example 12 @8 μg/ml: 8 µg/mL
[7]; with Example 15 @4 μg/ml
  MIC ATB combined with Example 15 @4 μg/ml: 16 µg/mL
